Experimental data as given in patent US12161723B2, “Water-based cannabinoid and opioid compositions” (DAY THREE LABS MAN[…]., priority 2014, dated 2024).

Experiments:
[1] = molecular target: T1, bovine serum albumin (BSA) (Bos taurus, UniProt P02769); assay: Cannabis smoke bubbled through aqueous BSA solution, cannabinoids determined by HPLC (Example 1a); type: binding; settings: BSA in Hartmann's solution; FIG. 2A
T1 construct: purchased Millipore, USA
Method: Protein-bound cannabinoid was formed according to the following method. An aqueous albumin solution was prepared by adding 20 (mg)) of bovine serum albumin (BSA, from Millipore, USA) to 10 milliliters (ml) ml Hartmann's solution (B. Braun Melsungen AG, Germany). BSA was completely dissolved using a shaker (Heidolph POLYMAX 1040) at 50 revolutions per minute.
A cannabis-filled cigarette was formed using a cigarette paper containing 0.8 gr ground cannabis (provided by “Seach” Israel), from flowers and budding leaves. A Pasteur pipette was cut longitudinally at its wide end, and the cigarette was lodged in to the cut end. The narrow end of the pipette was attached to a syringe. The cigarette was lit in a fume hood, and cigarette smoke was collected in the syringe by pulling the syringe plunger. The smoke was then slowly released into the BSA solution by depressing the plunger. Approximately 350 ml of smoke-containing air was gently bubbled through the BSA solution.
As a control, a solution of 10 ml of Hartmann's solution was prepared without the addition of BSA and a similar procedure of cannabis smoke formation and bubbling was performed.
Samples having a volume of 3 ml of the BSA solution and the control solution were each inserted in to HPLC glass vials and the open vials were inserted into a vacuum oven for 24 hours at 37° Celsius.
The solid phase after the evaporation was crushed in to a fine powder using mortar and pestle. The powder was extracted using Methanol chloroform 9:1 extract solution, sonicated for 30 minutes, and was then filtered and added in to an HPLC testing tube.
HPLC was performed using an HP1050 AGILENT, DAD detector, XBridge C18 3.5 μm 4.6×150 mm column, and according to the following parameters: […]

BSA [2] = molecular target: T2, BSA (Bos taurus, UniProt P02769); assay: Cannabis smoke/vapor passed through BSA/water/ethanol solution, cannabinoid profile (Example 1d); type: binding, bovine; settings: 33% ethanol, 48 hours incubation, washed
T2 sequence (P02769 25-607): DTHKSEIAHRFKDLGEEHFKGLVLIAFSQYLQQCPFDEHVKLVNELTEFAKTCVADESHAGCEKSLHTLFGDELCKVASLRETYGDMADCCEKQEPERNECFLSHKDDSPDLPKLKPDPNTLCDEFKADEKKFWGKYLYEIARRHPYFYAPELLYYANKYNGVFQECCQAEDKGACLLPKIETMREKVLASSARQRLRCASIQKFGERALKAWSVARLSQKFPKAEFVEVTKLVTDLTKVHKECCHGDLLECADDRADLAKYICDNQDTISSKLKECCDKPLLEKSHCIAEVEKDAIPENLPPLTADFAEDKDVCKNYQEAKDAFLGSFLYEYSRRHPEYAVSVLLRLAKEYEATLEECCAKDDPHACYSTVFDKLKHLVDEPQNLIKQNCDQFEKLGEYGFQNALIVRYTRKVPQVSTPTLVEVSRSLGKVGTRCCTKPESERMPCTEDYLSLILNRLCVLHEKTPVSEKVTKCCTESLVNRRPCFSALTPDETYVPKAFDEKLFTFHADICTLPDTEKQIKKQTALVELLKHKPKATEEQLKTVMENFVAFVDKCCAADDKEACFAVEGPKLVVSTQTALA
Method: (§1) To show which cannabinoid compounds are solubilized in processes using BSA versus organic solvents, cannabis from two different batches was smoked and or vaporized. Vapor was formed using a “volcano” vaporizer at a temperature of 210° C. The smoke/vapor was passed through either a BSA/water/ethanol solution described in example 1b, comprising 33% by volume ethanol or through a pure ethanol (99% ethanol) solution. Solutions were stirred using a magnetic stirrer and were incubated for 48 hours, during which time, most of the ethanol evaporated. One of the batches of cannabis was high in THC, and the other batch of cannabis was high in both THC and CBD.
The BSA/water/ethanol solution was washed after smoke or vapor was combined with it, and the amount of cannabinoids present was analyzed. The results of the comparison of relative concentration of cannabinoids (relative to total cannabinoid content) as expressed in percent (weight/weight), for a strain of cannabis high in THC are shown in the table below.

[3] = Cannabis smoke/vapor passed through pure ethanol, cannabinoid profile (Example 1d); type: physicochemical; settings: for relative concentration of cannabinoids (relative to total cannabinoid content), Vapor passed through ethanol: vapor at 210° C.
Method: as §1

bovine γ-globulin = assay: Cannabis vapor streamed through protein solution, cannabinoids adsorbed (Example 1f); type: binding; settings: vapor of cannabis high in CBD; 1 mg/ml protein, ethanol:water 1:2, 30° C., 24 hours
Method: (§2) The protein solutions were formed using ethanol and water in a 1:2 ratio. The solutions were incubated at 30° C. for 24 hours.

ovalbumin (hen) = molecular target: T3, ovalbumin (hen) (Gallus gallus, UniProt P01012); assay: as above; type: binding; settings: vapor of cannabis high in CBD; 1 mg/ml protein, ethanol:water 1:2, 30° C., 24 hours
T3 sequence (P01012 1-386): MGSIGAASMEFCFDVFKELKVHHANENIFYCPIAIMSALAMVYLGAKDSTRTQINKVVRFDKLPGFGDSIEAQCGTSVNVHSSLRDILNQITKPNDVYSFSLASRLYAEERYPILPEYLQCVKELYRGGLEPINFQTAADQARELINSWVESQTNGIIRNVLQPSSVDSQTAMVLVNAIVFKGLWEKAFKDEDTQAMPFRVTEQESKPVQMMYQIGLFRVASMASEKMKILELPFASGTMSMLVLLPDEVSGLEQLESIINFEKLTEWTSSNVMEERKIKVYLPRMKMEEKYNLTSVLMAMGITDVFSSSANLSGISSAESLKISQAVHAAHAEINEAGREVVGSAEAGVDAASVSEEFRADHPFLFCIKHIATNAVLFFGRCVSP
Method: as §2

[4] = molecular target: T4, rice recombinant human serum albumin (HSA) (Homo sapiens, UniProt P02768); assay: as above; type: binding; settings: vapor of cannabis high in CBD; 1 mg/ml protein, ethanol:water 1:2, 30° C., 24 hours
T4 construct: host or cells: rice (recombinant expression host)
T4 sequence (P02768 25-609): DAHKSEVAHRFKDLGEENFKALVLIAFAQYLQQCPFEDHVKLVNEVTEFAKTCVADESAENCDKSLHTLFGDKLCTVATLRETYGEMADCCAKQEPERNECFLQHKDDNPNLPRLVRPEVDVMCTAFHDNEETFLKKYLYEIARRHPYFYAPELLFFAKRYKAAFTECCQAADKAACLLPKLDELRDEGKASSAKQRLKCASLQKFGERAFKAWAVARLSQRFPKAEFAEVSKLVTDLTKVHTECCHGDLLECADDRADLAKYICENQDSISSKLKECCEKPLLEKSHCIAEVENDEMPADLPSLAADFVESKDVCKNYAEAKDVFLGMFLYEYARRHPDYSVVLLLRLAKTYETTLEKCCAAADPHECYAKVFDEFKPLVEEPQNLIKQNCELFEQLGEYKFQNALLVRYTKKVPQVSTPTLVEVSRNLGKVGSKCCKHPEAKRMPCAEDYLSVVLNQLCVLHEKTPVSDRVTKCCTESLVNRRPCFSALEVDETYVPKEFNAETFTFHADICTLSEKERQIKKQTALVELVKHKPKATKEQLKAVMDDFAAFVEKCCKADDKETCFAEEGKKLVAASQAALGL
Method: as §2

[5] = Cannabinoid content of cannabis extract (Example 2a); type: physicochemical; settings: methanol/chloroform 9:1 cannabis extract
Method: (§3) Cannabis extract was prepared as follows: In short, cannabis plant matter is dried, ground and homogenized to form ground cannabis. The ground cannabis is extracted with methanol/chloroform (volume/volume ratio of 9:1). Sonication and filtration is then performed. Identity of cannabinoids is determined by HPLC by evaporation, dissolution in an appropriate solvent.
(§4) Drying of the cannabis plant matter occurs under high vacuum at about 37±2° C. for about 24 hours and then ground to form a fine powder. 200 mg of ground powder is combined with 10 ml of methanol/chloroform, and sonicated in an ice bath for 30 minutes at maximum power. The supernatant is then filtered through a 0.2 micron filter.
(§5) A sample of the cannabis extract was analyzed for content of cannabinoids. The cannabis extract was then combined with albumin solution having 20% ethanol at 10 mg/ml (BSA) and incubated for 2 hours at room temperature.

BSA [6] = molecular target: T2, BSA; assay: Cannabis extract combined with albumin solution, cannabinoids adsorbed to BSA (Example 2a); type: binding, bovine; settings: albumin solution 10 mg/ml (BSA) with 20% ethanol, 2 hours at room temperature
Method: as §3, §4, §5

albumin (BSA) = albumin (BSA) (Bos taurus, UniProt P02769); assay: Ethanolic cannabinoid solution mixed with aqueous albumin, protein-bound cannabinoid quantified (Example 2b); type: binding, bovine; set-up: protein-bound cannabinoid quantified, Vapor: unit not given beside the values; settings: 100 microliters ethanolic solution + 500 microliters 5 mg/ml BSA, 30° C., 12 hours, non-adsorbed cannabinoids separated
Chain of albumin (BSA) (P02769 25-607): as the sequence (P02769 25-607) above
Method: 100 microliters of ethanolic cannabinoid solution from cannabis vapor and cannabis smoke were each mixed with 500 microliters of aqueous albumin solution that had been prepared at a concentration of 5 mg albumin (BSA)/ml. The aqueous albumin solution combined with the ethanolic cannabinoid solution was incubated at 30° C. for 12 hours in open tubes. After 12 hours, the tubes were mixed and centrifuged, and non-adsorbed cannabinoids were separated from the solution. Concentrated protein-bound cannabinoid was dried and quantified as described below.

[7] = 3 g high THC strain; 200 ml ethanol concentrated to about 3 ml
BSA [8] = molecular target: T2, BSA; assay: THC standard adsorption to BSA at varying ethanol content (Example 1c); type: binding, bovine; settings: 10 micrograms BSA, 30 micrograms THC, 1.5-15 microliters ethanol; FIG. 5
Method: 30 micrograms of THC standard was dissolved in various amounts of ethanol (absolute) in various amounts, between 1.5 microliters and 15 microliters. The THC solution was then combined with 0.5 ml of a 20 microgram/ml solution of BSA. […] The results can be seen in FIG. 5.

BSA [9] = molecular target: T2, BSA; assay: Adsorption capacity of BSA using THC standard (Example 1e); type: binding, bovine; settings: albumin 20 μg/ml in water and ethanol; THC 20-60 μg/ml; incubation two hours or 12 hours; FIG. 4
Method: An albumin solution in water (20 μg/ml) and ethanol was prepared. THC standard was added at concentrations of between 20 μg/ml and 60 μg/ml. The amount of THC adsorbed to the BSA protein was determined for each concentration after incubation for either two hours or 12 hours while gently vortexing.

[10] = strain of cannabis high in CBD and THC

T1 sequence (P02769 25-607): as above

| SMILES | active cannabinoids found by HPLC in BSA aqueous solution after cannabis smoke was introduced [1] | relative concentration of cannabinoids (relative to total cannabinoid content), Smoke passed through BSA/water/ethanol (BSA [2]; [10]) | relative concentration of cannabinoids (relative to total cannabinoid content), Vapor passed through BSA/water/ethanol (BSA [2]; [10]) | relative concentration of cannabinoids (relative to total cannabinoid content), Smoke passed through BSA/water/ethanol (BSA [2]; strain of cannabis high in THC) | relative concentration of cannabinoids (relative to total cannabinoid content), Smoke passed through ethanol [3, 10] | relative concentration of cannabinoids (relative to total cannabinoid content), Vapor passed through ethanol [3, 10] | relative concentration of cannabinoids (relative to total cannabinoid content), Smoke passed through ethanol ([3]; strain of cannabis high in THC) | relative concentration of cannabinoids (relative to total cannabinoid content), Vapor passed through ethanol ([3]; strain of cannabis high in THC) | percentage of each cannabinoid relative to total cannabinoids adsorbed to protein, Bovine γ-globulin (bovine γ-globulin) [percentage] | percentage of each cannabinoid relative to total cannabinoids adsorbed to protein, Ovalbumin (ovalbumin (hen)) [percentage] | percentage of each cannabinoid relative to total cannabinoids adsorbed to protein, Rice recombinant HSA [4] [percentage] | percentage of each cannabinoid relative to total cannabinoids, Extract [5] [percentage] | percentage of each cannabinoid relative to total cannabinoids adsorbed to protein, Adsorbed to BSA after extract combined with BSA solution (BSA [6]) [percentage] | protein-bound cannabinoid quantified, Smoke (albumin (BSA)) | protein-bound cannabinoid quantified, Vapor (albumin (BSA)) | amount of cannabinoids dissolved in ethanol, Smoke [7] [micrograms/ml] | amount of cannabinoids dissolved in ethanol, Vapor [7] [micrograms/ml] | adsorption of THC to protein as ethanol concentration increases (BSA [8]) | adsorbed THC per mg of albumin (BSA [9]) |
| --- | --- | --- | --- | --- | --- | --- | --- | --- | --- | --- | --- | --- | --- | --- | --- | --- | --- | --- | --- |
| CCCCCc1cc2c(c(O)c1C(=O)O)[C@@H]1C=C(C)CC[C@H]1C(C)(C)O2 [THCA, tetrahydrocannabinoic acid] | dissolved in the solution | 5.3 percent (weight/weight) | 0.0 percent (weight/weight) | 9.3 percent (weight/weight) | 0.7 percent (weight/weight) | 0.3 percent (weight/weight) | 0.9 percent (weight/weight) | 1.1 percent (weight/weight) | 100 | 0 | 0 | 22 | 29 | 2.16 | 4.26 | 83.765 | 72.8432 |  |  |
| CCCCCc1cc(O)c2c(c1)OC(C)(C)[C@@H]1CCC(C)=C[C@@H]21 [THC, tetrahydrocannabinol, reference compound] | dissolved in the solution | 32.8 percent (weight/weight) | 37.7 percent (weight/weight) | 69.7 percent (weight/weight) | 40.7 percent (weight/weight) | 40.9 percent (weight/weight) | 86.7 percent (weight/weight) | 94.6 percent (weight/weight) | 0 | 41.7 | 21 | 68 | 63 | 121.38 | 131.955 | 6195.223 | 3777.7796 | adsorption of THC to protein increases | above 50 μg adsorbed THC per mg of albumin |
